Entries after “also recorded” stand apart in the source; their conditions may differ.
Columns and labels:
[1] = target: T1, ovine COX-1 (Ovis aries, UniProt P05979); assay: COX colorimetric inhibitor screening assay, COX-1
T1 sequence (P05979 25-600): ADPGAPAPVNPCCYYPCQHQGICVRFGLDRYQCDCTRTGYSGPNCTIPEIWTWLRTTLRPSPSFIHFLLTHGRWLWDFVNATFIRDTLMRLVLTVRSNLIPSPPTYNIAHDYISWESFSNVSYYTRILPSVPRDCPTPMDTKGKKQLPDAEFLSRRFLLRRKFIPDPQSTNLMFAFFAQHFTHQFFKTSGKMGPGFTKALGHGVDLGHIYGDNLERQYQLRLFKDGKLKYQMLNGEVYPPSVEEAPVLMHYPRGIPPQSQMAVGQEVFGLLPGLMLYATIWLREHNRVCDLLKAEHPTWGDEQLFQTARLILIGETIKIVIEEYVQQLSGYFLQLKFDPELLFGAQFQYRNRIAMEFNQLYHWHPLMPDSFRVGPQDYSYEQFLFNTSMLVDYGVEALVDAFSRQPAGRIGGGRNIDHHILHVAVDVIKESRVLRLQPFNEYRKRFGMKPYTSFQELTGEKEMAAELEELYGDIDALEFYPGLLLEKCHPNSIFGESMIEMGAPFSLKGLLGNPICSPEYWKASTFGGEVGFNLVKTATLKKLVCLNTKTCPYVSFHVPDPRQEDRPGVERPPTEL
Method: (§2) The selectivity of the compounds for COX-1 or COX-2 was assessed by calculation of the IC50 ratios.
(§3) The compounds were dissolved in ethanol to get the final concentration of 100 µM. Each tested solution of compounds was transferred into a 96-well plate in three repetitions and then incubated for 2 min at RT with prepared reagents according to the manufacturing procedure. This assay measured the peroxidase component of COXs, which is evaluated as monitoring the oxidized form of N, N, N’, N’-tetramethyl-p-phenylenediamine (TMPD). The absorbance was measured using a VariuScan microplate reader at 590 nm. The data were calculated according to 3 steps. First, the average absorbance of all the samples was determined. Second, the absorbance of the background wells was subtracted from the absorbance of 100% of the starting COX-1 and COX-2 activity and the test compound wells.

[2] = target: T2, human recombinant COX-2 (Homo sapiens, UniProt P35354); assay: COX colorimetric inhibitor screening assay, COX-2; details: for COX-2/COX-1 selectivity compared with meloxicam: comparison of IC50 ratios; for COX-2 inhibition effect compared with meloxicam: comparison of IC50 values; for Ratio: COX-2/COX-1: ratio of IC50 values COX-2/COX-1
T2 sequence (P35354 18-604): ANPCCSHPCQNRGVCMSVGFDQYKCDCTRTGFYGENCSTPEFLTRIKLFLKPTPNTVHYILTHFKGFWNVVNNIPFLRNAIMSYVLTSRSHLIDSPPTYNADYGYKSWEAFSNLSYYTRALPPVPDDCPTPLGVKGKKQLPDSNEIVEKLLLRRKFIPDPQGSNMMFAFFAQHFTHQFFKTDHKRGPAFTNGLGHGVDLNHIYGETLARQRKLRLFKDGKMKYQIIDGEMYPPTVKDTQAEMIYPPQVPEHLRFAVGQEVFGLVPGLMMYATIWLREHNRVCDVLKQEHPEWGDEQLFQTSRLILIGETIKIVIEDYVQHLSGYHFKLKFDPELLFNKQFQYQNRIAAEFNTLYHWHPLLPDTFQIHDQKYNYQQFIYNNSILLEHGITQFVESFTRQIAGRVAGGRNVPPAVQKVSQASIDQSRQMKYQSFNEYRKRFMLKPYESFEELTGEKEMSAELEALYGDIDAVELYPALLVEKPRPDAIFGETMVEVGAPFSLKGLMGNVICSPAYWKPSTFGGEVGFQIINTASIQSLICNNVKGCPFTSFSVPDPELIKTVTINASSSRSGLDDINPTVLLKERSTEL
Method: as §2, §3

[3] = Differential scanning calorimetry (DSC) of DPPC model membranes; assay type: physicochemical; details: pH 7.4, molar ratios 0.06–0.12
Source text: To investigate the interaction of the tricyclic 1,2-thiazine derivatives (Table 1) with model membranes, we used the differential scanning calorimetry (DSC) method. As a model of the phospholipid membrane, the multibilayers made of 1,2-dipalmitoyl-n-glycero-3-phosphatidylcholine (DPPC) in a buffer solution (pH 7.4) were used.
Tris-EDTA buffer solution (pH 7.4) and 1,2-dipalmitoyl-n-glycero-3-phosphatidyl- choline (DPPC) were purchased from Sigma-Aldrich, Merck KGaA, Darmstadt, Germany. None of the compounds studied were soluble in water, so their chloroform (P.P.H. STANLAB, Lublin, Poland, analytical grade) solutions were used for calorimetric experiments.
For each sample, 2 mg of phospholipid (DPPC) were dissolved in the appropriate amount of chloroform stock solution (5 mM) of the compounds studied (the compound: DPPC molar ratios in the samples were: 0.06, 0.08, 0.10, 0.12). The solvent was then evaporated under a stream of nitrogen gas. After that, the residual solvent was evacuated under vacuum (Rotary evaporator, Büchy Poland, Warsaw, Poland) for 2 h. In this process, the phospholipid was transferred onto the dry film on the inner surface of the Eppendorf tube. Samples were hydrated by 20 μL of Tris–EDTA buffer (pH 7.4). […] Then, the samples were transferred into aluminum sample pans of the Concavus® type (Netzsch GmbH & Co., Selb, Germany) and sealed. A pan of the same type, filled with 20 μL of Tris–EDTA buffer (pH 7.4), was employed as a reference. Measurements of the DPPC main phase transition were performed using the heat-flow measurement method at a heating rate of 1 °C per minute over a temperature range of 30–50 °C in a nitrogen dynamic atmosphere (25 mL/min). Data were analyzed off-line using Netzsch Proteus® 7.1.0 (Netzsch GmbH & Co., Selb, Germany) analysis software. The transition enthalpies were stated in [J/g]. The measured heat was normalized per gram of lipid. […] All samples were weighed on a Sartorius CPA225D-0CE analytical balance (Sartorius AG, Gottingen, Germany) with a resolution of 0.01 mg.

[4] = tested on: NHDF cells; assay: MTT viability assay; assay type: cell-based, Human; details: 24 h incubation; for Mitochondrial activity of NHDF cells: 10 µM and 50 µM, compared to control; for Mitochondrial activity of NHDF cells / Cytotoxic effect on NHDF cells: MTT; for Cytotoxic effect on NHDF cells: 10, 50 and 100 µM
Method: The viability of the Normal Human Dermal Fibroblasts (NHDF) cells was assessed after 24 h incubation with 10, 50 and 100 µM tested compounds in MTT assay. […] The less than 30% decrease in culture viability was observed only in concentration of 100 µM for compound 6b in comparison to control (i.e., no cytotoxic potential of tested compound). […] Thus, all new compounds were directed to further research.
The study was carried out using the NHDF cell line obtained from ATCC (Manassas, VA, USA). These cells are commonly used to determine the cytotoxicity of new compounds. Cells were cultured at 37 °C in a humidified 5% CO2/95% air atmosphere incubator and passaged twice a week.
(§1) The 1,2-thiazine derivatives were dissolved in DMSO to a stock concentration of 10 mM. All prepared stock solutions were stored at −20 °C for up to 6 months. For the experiment, the compounds tested were used in the concentration range of 10, 50 and 100 μM. […] The abovementioned tested compounds were tested on NHDF cells.
The viability of the cells was assessed after 24 h incubation with 10–100 µM tested compounds in MTT assay. After incubation, cell culture with a 1 mg/mL solution of MTT for 2 h at 37 °C, the formazan crystals were dissolved in isopropanol. The plates were then shaken for 30 min, and the absorbance was measured at 570 nm using VariuScan microplate reader.

[5] = tested on: NHDF cells; assay: DCF-DA assay of reactive oxygen species (ROS); assay type: cell-based, Human; details: 1 h treatment; 10, 50 and 100 µM; compared to control
Method: The level of reactive oxygen species (ROS) was evaluated in DCF-DA assay and nitric oxide (NO) in Griess assay, on NHDF cells. […] This increase may be due to the normal cellular activity due to the increased cell numbers, probably resulting from proliferation.
as §1
Levels of reactive oxygen species (ROS) and nitric oxide (NO) were evaluated in DCF-DA (2′,7′-dichlorofluorescein diacetate) and Griess (cat. No. G7921; Thermo Fisher Scientific, Waltham, MA, USA) assays, respectively. In these assays, the cells were treated with tested compounds only for 1 h. After that time, the 50 µL of supernatant were transferred into new plates to assess the NO level. The remaining supernatant was removed, the cell culture was washed, and the 25 µM DCF-DA solution was added for 1 h at 37 °C. […] The plates with DCF-DA solution were analyzed with the Varioskan LUX microplate reader (λex = 485 nm and λem = 535 nm). The NO level was analyzed by the measurement of the absorbance at 548 nm using VariuScan microplate reader.

Row | SMILES | IC50 [1] [µM] | IC50 [2] [µM] | COX-2/COX-1 selectivity compared with meloxicam [2] | COX-2 inhibition effect compared with meloxicam [2] | Ratio: COX-2/COX-1 [2] | melting point [°C] | Effect on DPPC gel-liquid crystalline phase transition parameters (Tm, T½, ΔH) [3] | Mitochondrial activity of NHDF cells [4] | Cytotoxic effect on NHDF cells [4] | Decrease in culture viability ([4]; 100 µM, in comparison to control) | Level of reactive oxygen species (ROS) [5]
1 | Cc1ccc(C(=O)C2=C(O)c3ccccc3S(=O)(=O)N2)cc1 [Compound 4d] | 89.3 | 55.3 | higher COX-2/COX-1 selectivity than for meloxicam | stronger COX-2 inhibition effect than the meloxicam | 0.62 | – | – | – | – | – | –
2 | COc1ccc(C2=C3C(=O)c4ccccc4S(=O)(=O)N3CCCO2)cc1 [Compound 6e, 1-(4-methoxyphenyl)-7,7-dioxo-4,5-dihydro-3H-[1,4]oxazepino[4,3-b][1,2]benzothiazin-12-one] | 115 | 56.9 | higher COX-2/COX-1 selectivity than for meloxicam; also recorded: most selective inhibitor of COX-2 | stronger COX-2 inhibition effect than the meloxicam | 0.49 | 144 to 145 | most pronounced effects | – | – | – | –
3 | O=C(C1=C(O)c2ccccc2S(=O)(=O)N1)c1ccc(Cl)cc1 [Compound 4c] | 89 | 55.9 | higher COX-2/COX-1 selectivity than for meloxicam | stronger COX-2 inhibition effect than the meloxicam | 0.63 | – | – | statistically significant increase | no cytotoxic effect was observed | – | –
4 | O=C1C2=C(c3ccccc3)OCCCCN2S(=O)(=O)c2ccccc21 [Compound 7, 8,8-dioxo-1-phenyl-3,4,5,6-tetrahydro-[1,4]oxazocino[4,3-b][1,2]benzothiazin-13-one] | 86.1 | 54 | higher COX-2/COX-1 selectivity than for meloxicam | stronger COX-2 inhibition effect than the meloxicam | 0.63 | 198 to 201 | – | – | – | – | –
5 | O=C1C2=C(c3ccc(Br)cc3)OCCCN2S(=O)(=O)c2ccccc21 [Compound 6b, 1-(4-bromophenyl)-7,7-dioxo-4,5-dihydro-3H-[1,4]oxazepino[4,3-b][1,2]benzothiazin-12-one] | 86.9 | 95.1 | – | – | – | – | – | – | – | less than 30% | –
6 | O=C1C2=C(c3ccc(Cl)cc3)OCCCN2S(=O)(=O)c2ccccc21 [Compound 6c, 1-(4-chlorophenyl)-7,7-dioxo-4,5-dihydro-3H-[1,4]oxazepino[4,3-b][1,2]benzothiazin-12-one] | 89.8 | 94.1 | – | – | 1.05 | 168 to 170 | most pronounced effects | statistically significant increase | – | – | –
7 | O=C1C2=C(c3ccccc3)OCCN2S(=O)(=O)c2ccccc21 [Compound 5, 6,6-dioxo-1-phenyl-3,4-dihydro-[1,4] oxazino [4,3-b][1,2]benzothiazin-11-one] | 66.1 | 56.9 | – | stronger COX-2 inhibition effect than the meloxicam | 0.86 | 182 to 183 | – | – | – | – | –
8 | O=C(C1=C(O)c2ccccc2S(=O)(=O)N1)c1ccccc1 [Compound 4a] | 91.2 | 54.6 | higher COX-2/COX-1 selectivity than for meloxicam | stronger COX-2 inhibition effect than the meloxicam | 0.6 | – | – | statistically significant increase | no cytotoxic effect was observed | – | statistically significant increase
9 | Cc1ccc(C2=C3C(=O)c4ccccc4S(=O)(=O)N3CCCO2)cc1 [Compound 6d, 7,7-dioxo-1-(p-tolyl)-4,5-dihydro-3H-[1,4]oxazepino[4,3-b][1,2]benzothiazin-12-one] | 126 | 92.9 | – | – | 0.74 | 204 to 206 | most pronounced effects | – | – | – | –
10 | O=C1C2=C(c3ccccc3)OCCCN2S(=O)(=O)c2ccccc21 [Compound 6a, 7,7-dioxo-1-phenyl-4,5-dihydro-3H-[1,4]oxazepino[4,3-b][1,2]benzothiazin-12-one] | 106 | 89.9 | – | – | 0.85 | 171 to 172 | – | – | – | – | –
